# How the values were obtained:
# [1] = Apparent permeability of the compound across human Caco2 cells; type: ADME, cell-based; settings: Caco-2
# [2] = molecular target: T1, Phosphatidylinositol 4,5-bisphosphate 3-kinase catalytic subunit beta isoform (Homo sapiens, UniProt P42338); test: Inhibition of N-terminus poly-His tagged human PI3Kbeta expressed in baculovirus infected insect […] cells coexpressing p85alpha using PI(4,5)P2 as substrate preincubated with compound for 15 mins measured after 10 mins by HTRF assay
# T1 sequence (P42338 whole entry, canonical isoform): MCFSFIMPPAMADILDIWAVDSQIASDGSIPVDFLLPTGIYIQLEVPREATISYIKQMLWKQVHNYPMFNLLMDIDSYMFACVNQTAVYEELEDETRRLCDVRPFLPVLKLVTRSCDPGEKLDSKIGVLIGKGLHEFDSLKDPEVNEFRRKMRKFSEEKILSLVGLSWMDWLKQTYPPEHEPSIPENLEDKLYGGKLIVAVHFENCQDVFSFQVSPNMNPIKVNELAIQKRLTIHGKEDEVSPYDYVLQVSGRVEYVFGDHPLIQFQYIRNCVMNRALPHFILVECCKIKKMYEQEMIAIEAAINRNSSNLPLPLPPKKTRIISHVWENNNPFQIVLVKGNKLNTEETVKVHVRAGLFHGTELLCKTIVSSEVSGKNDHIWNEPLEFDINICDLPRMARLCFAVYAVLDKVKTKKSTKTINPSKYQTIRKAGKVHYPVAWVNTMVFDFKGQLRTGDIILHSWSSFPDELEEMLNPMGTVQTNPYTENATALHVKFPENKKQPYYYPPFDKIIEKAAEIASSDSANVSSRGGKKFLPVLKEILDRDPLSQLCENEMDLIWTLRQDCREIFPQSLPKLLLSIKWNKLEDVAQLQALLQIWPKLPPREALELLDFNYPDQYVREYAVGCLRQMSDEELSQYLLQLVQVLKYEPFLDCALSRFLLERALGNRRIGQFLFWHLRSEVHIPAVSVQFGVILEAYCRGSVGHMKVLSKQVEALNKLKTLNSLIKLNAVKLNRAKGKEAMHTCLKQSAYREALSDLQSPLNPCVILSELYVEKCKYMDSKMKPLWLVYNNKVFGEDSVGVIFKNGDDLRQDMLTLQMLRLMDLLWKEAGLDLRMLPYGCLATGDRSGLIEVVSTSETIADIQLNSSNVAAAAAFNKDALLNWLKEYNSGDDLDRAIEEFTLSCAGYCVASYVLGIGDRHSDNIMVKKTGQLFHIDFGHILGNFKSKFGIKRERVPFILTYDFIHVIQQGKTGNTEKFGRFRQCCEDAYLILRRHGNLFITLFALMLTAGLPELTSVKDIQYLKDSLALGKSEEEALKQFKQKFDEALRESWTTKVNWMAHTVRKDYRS
# [3] = Thermodynamic solubility of the compound in phosphate buffer at pH 7.4 after 16 hrs by HPLC analysis; type: physicochemical; settings: read-out: Therm_solubility
# [4] = molecular target: T2, Phosphatidylinositol 4,5-bisphosphate 3-kinase catalytic subunit delta isoform (Homo sapiens, UniProt O00329); test: Inhibition of poly-His tagged human PI3Kdelta expressed in baculovirus infected insect sf9 cells coexpressing p85alpha using PI(4,5)P2 as substrate preincubated with compound for 15 mins measured after 10 mins by HTRF assay
# T2 sequence (O00329 whole entry): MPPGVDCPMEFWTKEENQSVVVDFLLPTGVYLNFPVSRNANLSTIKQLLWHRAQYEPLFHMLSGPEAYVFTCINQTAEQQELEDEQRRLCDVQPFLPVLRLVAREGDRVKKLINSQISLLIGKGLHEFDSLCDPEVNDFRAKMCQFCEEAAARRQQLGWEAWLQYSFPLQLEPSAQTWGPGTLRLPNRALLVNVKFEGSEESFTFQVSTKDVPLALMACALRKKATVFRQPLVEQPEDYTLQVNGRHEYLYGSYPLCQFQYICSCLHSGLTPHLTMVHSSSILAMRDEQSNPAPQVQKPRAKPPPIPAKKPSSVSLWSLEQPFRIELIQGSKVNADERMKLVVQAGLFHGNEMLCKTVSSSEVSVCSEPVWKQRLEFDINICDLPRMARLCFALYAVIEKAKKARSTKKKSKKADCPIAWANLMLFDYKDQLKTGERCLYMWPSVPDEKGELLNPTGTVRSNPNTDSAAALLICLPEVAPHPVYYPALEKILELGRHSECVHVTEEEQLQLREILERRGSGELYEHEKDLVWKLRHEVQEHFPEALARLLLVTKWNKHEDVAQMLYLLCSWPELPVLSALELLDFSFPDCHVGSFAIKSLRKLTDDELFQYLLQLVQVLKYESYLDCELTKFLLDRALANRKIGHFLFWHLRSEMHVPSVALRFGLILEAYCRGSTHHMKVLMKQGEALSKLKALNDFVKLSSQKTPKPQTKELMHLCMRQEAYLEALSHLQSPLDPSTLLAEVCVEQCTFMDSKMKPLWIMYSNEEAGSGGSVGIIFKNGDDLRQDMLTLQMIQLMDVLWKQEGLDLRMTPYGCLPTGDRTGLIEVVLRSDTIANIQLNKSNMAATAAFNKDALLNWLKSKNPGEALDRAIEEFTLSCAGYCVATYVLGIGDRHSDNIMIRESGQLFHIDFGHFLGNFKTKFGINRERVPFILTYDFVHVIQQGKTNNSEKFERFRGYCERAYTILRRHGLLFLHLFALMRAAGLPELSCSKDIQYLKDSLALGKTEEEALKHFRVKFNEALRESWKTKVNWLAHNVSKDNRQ
# [5] = Drug metabolism in mouse liver microsomes; type: ADME, Microsome; settings: read-out: Drug metabolism
# Cytochrome P450 3A4 = Cytochrome P450 3A4 (Homo sapiens, UniProt P08684); test: Inhibition of human recombinant CPY3A4
# Chain of Cytochrome P450 3A4 (P08684 whole entry, canonical isoform): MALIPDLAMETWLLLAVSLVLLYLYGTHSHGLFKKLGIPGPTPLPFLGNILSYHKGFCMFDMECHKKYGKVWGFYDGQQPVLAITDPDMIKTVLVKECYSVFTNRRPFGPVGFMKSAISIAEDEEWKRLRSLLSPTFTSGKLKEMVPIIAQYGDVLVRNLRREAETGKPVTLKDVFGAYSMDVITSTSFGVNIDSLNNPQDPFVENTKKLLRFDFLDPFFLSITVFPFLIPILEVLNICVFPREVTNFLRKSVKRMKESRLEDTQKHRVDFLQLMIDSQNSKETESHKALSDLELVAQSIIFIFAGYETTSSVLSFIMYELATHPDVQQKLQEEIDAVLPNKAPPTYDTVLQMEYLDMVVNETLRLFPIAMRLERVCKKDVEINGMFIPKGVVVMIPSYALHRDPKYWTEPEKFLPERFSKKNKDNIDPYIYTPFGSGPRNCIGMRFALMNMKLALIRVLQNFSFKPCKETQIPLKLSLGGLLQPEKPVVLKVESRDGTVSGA
# [6] = molecular target: T1, Phosphatidylinositol 4,5-bisphosphate 3-kinase catalytic subunit beta isoform; test: Inhibition of human PI3Kbeta-mediated Akt phosphorylation at Ser473 residue expressed in PTEN-deficient human PC3 cells by chemiluminescence assay; type: cell-based, PC-3
# [7] = molecular target: T3, Phosphatidylinositol 4,5-bisphosphate 3-kinase catalytic subunit gamma isoform (Homo sapiens, UniProt P48736); test: Inhibition of N-terminus poly-His tagged human PI3Kgamma expressed in baculovirus infected insect sf9 cells using PI(4,5)P2 as substrate preincubated with compound for 15 mins measured after 10 mins by HTRF assay
# T3 sequence (P48736 whole entry, canonical isoform): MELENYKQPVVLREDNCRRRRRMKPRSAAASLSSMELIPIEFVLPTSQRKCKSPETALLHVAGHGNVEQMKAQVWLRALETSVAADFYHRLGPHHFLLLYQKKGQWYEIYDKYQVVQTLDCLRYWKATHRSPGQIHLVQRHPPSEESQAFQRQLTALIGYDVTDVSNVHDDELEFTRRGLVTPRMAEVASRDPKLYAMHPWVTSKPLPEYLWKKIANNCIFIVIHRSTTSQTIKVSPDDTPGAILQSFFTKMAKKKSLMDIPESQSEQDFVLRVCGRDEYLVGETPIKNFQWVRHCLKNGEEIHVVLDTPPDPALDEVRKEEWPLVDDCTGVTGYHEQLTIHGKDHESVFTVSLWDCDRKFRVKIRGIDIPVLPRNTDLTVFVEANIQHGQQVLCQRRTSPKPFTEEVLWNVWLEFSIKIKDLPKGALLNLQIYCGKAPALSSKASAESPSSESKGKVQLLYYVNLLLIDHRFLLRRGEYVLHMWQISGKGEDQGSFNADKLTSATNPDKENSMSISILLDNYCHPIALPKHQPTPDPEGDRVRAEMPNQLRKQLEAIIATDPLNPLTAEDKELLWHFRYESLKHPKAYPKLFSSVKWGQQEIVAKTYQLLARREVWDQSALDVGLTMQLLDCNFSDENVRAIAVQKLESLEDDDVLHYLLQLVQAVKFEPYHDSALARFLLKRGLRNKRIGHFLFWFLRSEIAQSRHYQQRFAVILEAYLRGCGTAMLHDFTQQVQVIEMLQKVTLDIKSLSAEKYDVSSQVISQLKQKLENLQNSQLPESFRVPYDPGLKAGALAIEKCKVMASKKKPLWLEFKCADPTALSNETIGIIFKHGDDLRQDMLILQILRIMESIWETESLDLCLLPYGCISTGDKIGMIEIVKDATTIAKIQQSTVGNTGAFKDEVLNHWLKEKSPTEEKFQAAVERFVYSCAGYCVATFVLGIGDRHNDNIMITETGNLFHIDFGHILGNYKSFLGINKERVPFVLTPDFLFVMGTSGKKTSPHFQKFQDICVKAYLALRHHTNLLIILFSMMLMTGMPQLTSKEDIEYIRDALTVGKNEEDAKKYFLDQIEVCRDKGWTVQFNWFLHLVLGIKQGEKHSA
# [8] = Drug metabolism in human liver microsomes; type: ADME, Microsome; settings: read-out: Drug metabolism
# [9] = molecular target: Serine/threonine-protein kinase mTOR (Homo sapiens, UniProt P42345); test: Inhibition of mTOR
# [10] = molecular target: T4, Phosphatidylinositol 4,5-bisphosphate 3-kinase catalytic subunit alpha isoform (Homo sapiens, UniProt P42336); test: Inhibition of N-terminus poly-His tagged human PI3Kalpha expressed in baculovirus infected insect sf9 cells coexpressing p85alpha using PI(4,5)P2 as substrate preincubated with compound for 15 mins measured after 10 mins by HTRF assay
# T4 sequence (P42336 whole entry, canonical isoform): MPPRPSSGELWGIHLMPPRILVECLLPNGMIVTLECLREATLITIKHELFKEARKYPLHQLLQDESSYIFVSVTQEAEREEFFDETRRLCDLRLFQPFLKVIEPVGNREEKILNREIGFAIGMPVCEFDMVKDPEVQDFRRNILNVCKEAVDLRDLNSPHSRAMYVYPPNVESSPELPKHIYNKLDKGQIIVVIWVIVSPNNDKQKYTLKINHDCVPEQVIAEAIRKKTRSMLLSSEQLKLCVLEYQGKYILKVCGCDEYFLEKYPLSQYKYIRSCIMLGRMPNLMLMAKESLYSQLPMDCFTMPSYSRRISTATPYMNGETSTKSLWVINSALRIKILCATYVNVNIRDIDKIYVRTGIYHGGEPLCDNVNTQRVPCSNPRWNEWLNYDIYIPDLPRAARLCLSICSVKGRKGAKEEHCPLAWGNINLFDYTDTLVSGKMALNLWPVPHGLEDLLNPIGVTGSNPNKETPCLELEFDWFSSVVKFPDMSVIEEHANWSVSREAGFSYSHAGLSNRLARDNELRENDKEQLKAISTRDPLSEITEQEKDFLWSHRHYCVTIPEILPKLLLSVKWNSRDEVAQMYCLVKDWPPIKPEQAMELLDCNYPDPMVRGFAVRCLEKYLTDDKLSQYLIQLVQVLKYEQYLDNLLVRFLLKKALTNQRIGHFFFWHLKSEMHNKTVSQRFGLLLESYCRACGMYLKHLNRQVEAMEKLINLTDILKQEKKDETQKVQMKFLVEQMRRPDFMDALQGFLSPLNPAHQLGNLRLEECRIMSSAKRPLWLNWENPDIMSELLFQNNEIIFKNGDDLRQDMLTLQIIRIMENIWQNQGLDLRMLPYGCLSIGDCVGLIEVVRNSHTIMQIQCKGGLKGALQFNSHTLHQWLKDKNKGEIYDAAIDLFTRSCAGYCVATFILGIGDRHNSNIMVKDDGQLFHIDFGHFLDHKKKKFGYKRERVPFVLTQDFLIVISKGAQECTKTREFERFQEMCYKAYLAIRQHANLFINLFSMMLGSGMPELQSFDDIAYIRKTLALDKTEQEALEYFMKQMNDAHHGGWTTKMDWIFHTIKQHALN
# [11] = molecular target: T1, Phosphatidylinositol 4,5-bisphosphate 3-kinase catalytic subunit beta isoform; test: Inhibition of human PI3Kbeta-mediated Akt phosphorylation at T308 residue expressed in PTEN-deficient human PC3 cells after 2 hrs by Western blot analysis; type: cell-based, PC-3
# [12] = Inhibition of mTORC2-mediated Akt phosphorylation at Ser473 residue in PTEN-deficient human PC3 cells after 2 hrs by Western blot analysis; type: cell-based; settings: PC-3, 2 h
# [13] = molecular target: T4, Phosphatidylinositol 4,5-bisphosphate 3-kinase catalytic subunit alpha isoform; test: Inhibition of human PI3Kalpha-mediated Akt phosphorylation at Ser473 residue expressed in human H460 cells after 0.5 to 2 hrs by Western blot analysis; type: cell-based
# [14] = molecular target: T2, Phosphatidylinositol 4,5-bisphosphate 3-kinase catalytic subunit delta isoform; test: Inhibition of human PI3Kdelta-mediated Akt phosphorylation at Ser473 residue expressed in mouse MEF-3T3 cells after 0.5 to 2 hrs by Western blot analysis; type: cell-based
# [15] = molecular target: T3, Phosphatidylinositol 4,5-bisphosphate 3-kinase catalytic subunit gamma isoform; test: Inhibition of human PI3Kgamma-mediated Akt phosphorylation at Ser473 residue expressed in mouse RAW264.7 cells after 0.5 to 2 hrs by Western blot analysis; type: cell-based
Structure (SMILES),Papp [1],IC50 [2],solubility thermodynamic at 16 h [3],IC50 [4],metabolised [5],IC50 (Cytochrome P450 3A4),IC50 [6],IC50 [7],metabolised [8],IC50 [9],IC50 [10],IC50 [11],IC50 [12],IC50 [13],IC50 [14],IC50 [15]
O=c1cc(N2CCOCC2)nc(Cc2nc3cc(F)ccc3o2)[nH]1,16 ×10⁻⁶ cm/s,46 nM,3 µM,854 nM,23%,> 40000 nM,26 nM,> 10000 nM,47%,> 10000 nM,> 10000 nM,–,–,–,–,–
O=c1cc(N2CCOCC2)nc(Cc2nc3ccc(F)cc3[nH]2)[nH]1,0.2 ×10⁻⁶ cm/s,30 nM,76 µM,219 nM,0%,> 40000 nM,41 nM,> 10000 nM,69%,> 10000 nM,> 10000 nM,100 nM,41 nM,–,–,–
O=c1cc(N2CCOCC2)nc(Cc2nc3cccc(-c4ccccc4)c3o2)[nH]1,32.3 ×10⁻⁶ cm/s,90 nM,3 µM,1180 nM,61%,> 40000 nM,177 nM,> 10000 nM,57%,> 10000 nM,> 10000 nM,–,–,–,–,–
Cn1c(Cc2nc(N3CCOCC3)cc(=O)[nH]2)nc2cccc(-c3ccccc3)c21,3.9 ×10⁻⁶ cm/s,60 nM,2 µM,181 nM,55%,> 40000 nM,17 nM,> 10000 nM,57%,> 10000 nM,4580 nM,–,–,–,–,–
O=c1cc(N2CCOCC2)nc(Cc2nc3c(-c4cccs4)cccc3o2)[nH]1,25.5 ×10⁻⁶ cm/s,46 nM,3 µM,398 nM,79%,19000 nM,22 nM,5740 nM,60%,> 10000 nM,4360 nM,–,–,–,–,–
O=c1cc(N2CCOCC2)nc(Cc2nc3ccccc3o2)[nH]1,19.9 ×10⁻⁶ cm/s,82 nM,160 µM,779 nM,7%,> 40000 nM,62 nM,> 10000 nM,41%,> 10000 nM,> 10000 nM,–,–,–,–,–
CCn1c(Cc2nc(N3CCOCC3)cc(=O)[nH]2)nc2ccccc21,0.5 ×10⁻⁶ cm/s,72 nM,221 µM,225 nM,48%,> 40000 nM,26 nM,8270 nM,60%,> 10000 nM,1000 nM,–,–,–,–,–
Cn1c(Cc2nc(N3CCOCC3)cc(=O)[nH]2)nc2cc(F)ccc21,3.1 ×10⁻⁶ cm/s,82 nM,3 µM,855 nM,20%,> 40000 nM,16 nM,> 10000 nM,39%,> 10000 nM,> 10000 nM,–,–,–,–,–
Cc1cc(C(C)Nc2ccccc2)c2oc(N3CCOCC3)cc(=O)c2c1 (stereo not drawn),–,28 nM,–,–,–,–,3 nM,–,–,–,–,3 nM,3 nM,–,–,–
O=c1cc(N2CCOCC2)nc(Cc2nc3ccccc3n2-c2ccccc2)[nH]1,4.4 ×10⁻⁶ cm/s,75 nM,397 µM,36 nM,100%,> 40000 nM,8 nM,> 10000 nM,98%,> 10000 nM,6790 nM,–,–,–,–,–
Cc1cc(C(C)Nc2ccccc2)c2nc(N3CCOCC3)cc(=O)n2c1 (stereo not drawn),–,–,–,851 nM,–,–,–,> 10000 nM,–,–,> 10000 nM,–,10 nM,> 1000 nM,252 nM,> 1000 nM
O=c1cc(N2CCOCC2)nc(Cc2nc3c(-c4ccccc4)c(F)ccc3o2)[nH]1,37.1 ×10⁻⁶ cm/s,8 nM,15 µM,151 nM,17%,> 40000 nM,6 nM,> 10000 nM,18%,> 10000 nM,> 10000 nM,–,–,–,–,–

# Source: ChEMBL document CHEMBL2062364, “Discovery and optimization of new benzimidazole- and benzoxazole-pyrimidone selective PI3Kβ inhibitors for the treatment of phosphatase and TENsin homologue (PTEN)-deficient cancers” (J Med Chem, 2012)
